Laboratory results taken from patent US7083918B2, “Bacterial small-molecule three-hybrid system” (The Trustees of Columbia University in the City of New York, priority 2002, dated 2006).

Columns and labels:
tolC^− strains = test: growth and viability of tolC- strains on antibiotic; type: cell-based, E. coli
Method: Electrocompetent cells of strain V674E were made by standard methods (35); however, the transformation efficiency of this strain is low (10^6–10^7) due to the tolC^− mutation. Using standard methods, both the pACλcI32 and the pBRαLN plasmids or appropriate derivatives were transformed into the strain. Transformants were grown on LB with 100 μg/mL ampicillin and 6 μg/mL chloramphenicol. […] In addition MacConkey plates can't be used because MacConkey media is toxic to strains bearing a tolC^− mutation.

[1] = system: λcI-FKBP12 and αNTD-DHFR fusion proteins (lacZ reporter gene in E. coli strain V674E); test: liquid lacZ (ONPG) β-galactosidase assay, bacterial three-hybrid system; type: cell-based; conditions: for effect of unlinked ligand on the levels of transcription in the three-hybrid system: control without Mtx-SLF (FIG. 4)
From the text: The levels of small-molecule induced transcriptional activation were quantified using liquid lacZ assays. The strains here correspond exactly to those in FIG. 2 and are used in liquid ONPG assays where the levels of transcriptional activation can be quantitated based on the amount of reporter protein, b-galactosidase, which is produced. The strains are V674E bearing plasmids encoding λcI and αNTD fusion proteins: 1, λcI-Gal4, αNTD-Gal11^P; 2, λcI, αNTD; 3, λcI-FKBP12, αNTD; 4, λcI-FKBP12, αNTD-DHFR; 5, λcI, αNTD-DHFR. The strains were assayed in triplicate from three transformants and standard deviations are shown. The strains are grown in LB with 0.5 mM IPTG, 100 μg/mL ampicillin, 6 μg/mL chloramphenicol, and small molecules at the indicated concentration. […] The last two small-molecule concentrations are competition assays in which an excess of one of the ligands for the receptor proteins was used to compete out the positive signal due to the three-hybrid system.
The strains are V674E expressing the following λcI and αNTD fusion proteins: (♦), λcI-Gal4, αNTD-Gal11^P (a direct protein-protein interaction); (▬), λcI-FKBP12, αNTD (a negative control); and (▴), λcI-FKBP12, αNTD-DHFR (the three-hybrid system). […] The standard deviation for each data point is also shown.
For the liquid assays, the strains were incubated overnight in LB liquid media containing 100 μg/mL ampicillin, 6 μg/mL chloramphenicol, and 0.5 mM IPTG overnight. These cultures were used to innoculate 1000 fold into LB liquid media containing 100 μg/mL ampicillin, 6 μg/mL chloramphenicol, 0.5 mM IPTG, and small molecule (per concentration indicated in each experiment) and grown to a final OD600 of 0.4-0.6 in a 37° C. shaker which took about 5 hours. No tPEG is used in the liquid assays in order to get a true quantization of the transcription. Then, the protocol from Miller was followed exactly using 0.1 mL cell lysate for the assay (35).

E. coli cells = test: toxicity to E. coli cells in three-hybrid experiments; type: cell-based; conditions: at the low concentrations of Mtx-SLF required for the three-hybrid experiments; tolC^− strain
Method: The next step was the construction of the E. coli strain expressing the λcI-FKBP12 and (NTD-DHFR fusion proteins and containing the lacZ reporter construct. Plasmids encoding the λcI-FKBP12 and αNTD-DHFR chimeras were prepared from vectors pACλcI32 and pBRαLN using standard molecular biology techniques (8). The same synthetic lacZ reporter, placOR2-62, as initially reported by the Hochschild lab was used. The reporter placOR2-62 is maintained in one copy in the chromosome as a prophage and encodes the lacZ gene 62 bp downstream from the λcI operator (FIG. 1) (16). Based on previous results from Kopytek and Hu showing that tolC^− and thyA^− mutations improved the viability and tolerance of E. coli to Mtx-based molecules, we expected export as well as toxicity of Mtx-SLF to be problematic in E. coli (32). Thus, we modified the original Hochschild strain KS1 to be tolC^− in order to decrease active export of our small molecule. […] We introduced the tolC^− mutation into KS1 via a P1vir transduction from strain SK037 (32). We call this test strain V674E. Transformation of the plasmids bearing the various λcI and αNTD fusion proteins into V674E yielded the final experimental strains.
These X-gal plate results were confirmed using more quantitative liquid β-galactosidase assays. The liquid assays were carried out essentially as originally described by Miller (35). […]

FKBP12 = FKBP12 (Homo sapiens, UniProt P62942); conditions: cited from earlier work
FKBP12, sequence (P62942 whole entry): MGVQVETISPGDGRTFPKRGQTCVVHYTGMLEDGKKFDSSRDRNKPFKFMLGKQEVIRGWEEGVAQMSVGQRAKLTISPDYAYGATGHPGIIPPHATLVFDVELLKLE

O=C(N[C@H](CO)[C@H](O)c1ccc([N+](=O)[O-])cc1)C(Cl)Cl [Chloramphenicol]
levels that significantly impair growth and viability of tolC^− strains (tolC^− strains): above 8 μg/mL

CN(Cc1cnc2nc(N)nc(N)c2n1)c1ccc(C(=O)N[C@@H](CCC(=O)O)C(=O)O)cc1 [Mtx, methotrexate]
effect of unlinked ligand on the levels of transcription in the three-hybrid system [1]: Neither Mtx, SLF, nor a combination of the two affects the levels of transcription | toxicity in E. coli (need for thyA^− mutation) (E. coli cells): not sufficiently toxic

CCC(C)(C)C(=O)C(=O)N1CCCCC1C(=O)OC(CCc1ccc(OC)c(OC)c1)c1cccc(OCC(=O)O)c1 (stereo not drawn) [SLF]
effect of unlinked ligand on the levels of transcription in the three-hybrid system [1]: Neither Mtx, SLF, nor a combination of the two affects the levels of transcription | affinity for FKBP12 (FKBP12): nanomolar affinity

CCC(C)(C)C(=O)C(=O)N1CCCCC1C(=O)OC(CCc1ccc(OC)c(OC)c1)c1cccc(OCC(=O)OC(C)(C)C)c1 (stereo not drawn) [tert-butyl ester of SLF]
levels of transcription with competitor relative to 1 μM Mtx-SLF alone ([1]; competition: 1 μM Mtx-SLF plus 10-fold excess of competitor): about half
